For 21 compounds, inhibition and EC50 results are on record in patent US5563142A, “Diaromatic substituted compounds as anti-HIV-1 agents” (The Upjohn Company, priority 1994, dated 1996).

Each structure is given as a SMILES string. Bounds are passed on as bounds.

Assay [1] addresses T1, viral reverse transcriptase (Human immunodeficiency virus type 1 group M subtype B, UniProt P04585).
T1 construct: Viral reverse transcriptase is found in extracts from bacterial clones; made in house; host or cells: Escherichia coli (extracts of bacterial clones, by the procedure of Larder et al., EMBO J. 6:3133-3137, 1987)
Briefly: Viral reverse transcriptase inhibition, cell free assay. Format: biochemical, human immunodeficiency virus (HIV-1). To be noted: read-out: RT % INHIBITION (100 μM), 100 μM; poly rC or poly rG template. An excerpt:
The utility of the diaromatic substituted piperazines (III), the anti-AIDS piperazines (IV) and the indoles (V) of this invention can be determined by their ability to inhibit viral reverse transcriptase, an enzyme essential for human immunodeficiency virus replication. This enzyme has characteristics which differentiate it from other known cellular polymerases and it is a unique enzyme which is not found in uninfected cells. Viral reverse transcriptase is found in extracts from bacterial clones prepared according to the procedure described in AIDS Virus Reverse Transcriptase defined by high level expression in Escherichia coli, EMBO J. 6:3133-3137 (1987). Inhibition of this enzyme is determined in a cell free assay which measures the level of radioactive precursors incorporated into DNA. Extracts prepared according to the procedure of Science, 1125-1129 (1981) are incubated in a mixture of inhibitor, 20 mM dithiothreitol, 60 mM sodium chloride, 0.05% NP-40, 10 mM magnesium chloride, 50 mM Tris pH 8.3, 10 μM [^35 S]-labeled deoxynuleoside-5'-triphosphate, 10 μg/ml RNA template (poly rC or poly rG) and 5 μg/ml DNA primer (oligo dG or oligo dT) for 30 minutes at 37° C. Incorporation of radio-labeled percursor is determined by spotting aliquots of the reaction mixture on DE81 paper, washing the papers to remove unincorporated percursor, drying and determining counts. The results (IC50 means the concentration, in μM of drug, required to inhibit the reverse transcriptase activity to the extent of 50%) of various assay(s) are combined and reported as % inhibition and IC50 (calculated).
^1 Viral reverse transcriptase is found in extracts from bacterial
clones prepared according to the procedure described by Larder, B.,
Purifoy D., Powell, K. and Darby, G., AIDS virus reverse transcriptase
defined by high level expression in Escherichia coli., EMBO J. 6,
3133-3137 (1987). Inhibition of this enzyme is determined in a cell free
assay which measures the level of radioactive precursors incorporated int
DNA. Extracts prepared according to the procedure of Kleid, D. G., et
al., Science, 1125-1129 (1981) are incubated in a mixture of inhibitor, 2
mM dithiothreitol, 60 mM sodium chloride, 0.05% NP40, 10 mM magnesium
chloride, 50 mM Tris pH 8.3, 10 μM [^35 Slabeled
deoxynucleoside5triphosphate, 10 μg/ml RNA template (poly rC or poly
rG) and 5 μg/ml DNA primer (oligo dG or oligo dT) for 15 minutes at
37°. Incorporation of radio labeled precursor is determined by
harvesting the trichloroacetic acid precipitated reaction mixtures on
glass fiber filters, drying, and determining counts. The results of
various assays are combined and reported as % inhibition at a 100 μM

The subject of assay [2] is HIV in primary human peripheral blood lymphocytes. The assay can be described thus: Primary PBL assay: inhibition of viral replication (p24 & RNA). Format: cell-based. To be noted: Human immunodeficiency virus 1, Lymphocyte, primary human lymphocytes infected with HIV, days three and four, read-out: PBL INHIBITION OF VIRAL REPLICATION (p24 & RNA) ED50. The procedure: ^3 The utility of the compounds of the invention is further
infection in primary peripheral blood lymphocytes (primary PBL assay). Th
primary PBL assay offers the following advantages:
(a) The assays are performed with primary human lymphocytes. Thereby,
undesired testing of transformed cell lines is avoided in which host cell
and virus may have undergone processes of mutual adaptation. Performance
of cell culture in serum containing media closely mimics the in vivo
situation. (b) The primary PBL assay distinguishes between true antiviral
effect which is due to the drug and cytostatic/cytotoxic reactions. (c)
Viral replication is precisely followed by kinetic measurement of viral
nucleic acids and proteins. (d) Nucleic acids (total HIVRNA intra and
extracellular) and protein (secreted p24) are measured in parallel which
permits one to differentiate between the compound's effect on virus
replication and on the expression of viral proteins. This leads to
additional information regarding the efficacy of the test compound. (e)
Tolerance of the cell culture against low amounts of organic solvents als
permits the investigation of hydrophobic substances. (f) The dose of the
drug causing half maximal suppression of virus replication is determined.
(g) The screening system is standardized and automated to a high degree.
The primary PBL assay uses the following procedure:
Effects of the compounds of the invention on cell proliferation are determined by lymphocyte proliferation assays. Starting with a 100 micromolar solution, the compound is serially diluted 10 fold. One tenth of the concentration of a compound causing half maximal inhibition of cellular proliferation is employed for all subsequent testing.
Peripheral human lymphocytes are isolated by density gradient centrifugation. After stimulation by mitogen the cells are infected with a standardized preparation of HIV. Subsequently, the infected cells are cultured in the presence of the drug for four days. Individual cultures are established to measure viral replication three and four days following infection. Untreated cells and AZT-treated cells are included as controls in parallel with the drugs under investigation.
The amount of viral core protein p24 synthesized and release by the infected cells is determined in the supernatant by the capture-ELISA technique on days three and four. By comparing with a standard preparation, the amount of protein produced by the virus infected cells is quantified.
The total amount of viral RNA synthesized by the infected lymphocytes is determined by a special nucleic acid hybridization on days three and four of culture. By including a standard preparation of HIV-RNA the amount of synthesized RNA is quantified.
In addition, viability of HIV-infected cells is determined in parallel with assays for viral p24 and RNA. In order to evaluate the half maximal antiviral effect of the drug, a concentration dependency of the drug action is measured.
Numerous examples of the compounds of the invention are assayed according to this procedure. The anti-HIV activity, as measured by the inhibition of the release of core p24 protein in HIV infected human lymphocytes, is used to calculate ED50 -antiviral (the concentration required to give a 50% reduction in p24 synthesis).

Regarding `CCNc1cccnc1N1CCN(C(=O)c2cc3ccc(OC)c(C)c3[nH]2)CC1` [Example 71, 1-[6-Methoxy-7-methylindolyl-2-carbonyl]-4-(3-ethylamino-2-pyridinyl)piperazine], the inhibition at 100 µM in assay [1] is 88 to 95%. Also, in assay [2], the EC50 fell in the range of 0.01 to 0.1 µM.
With `COc1cc2cc(C(=O)N3CCN(c4ncccc4NC(C)C)CC3)[nH]c2cc1OC` [Example 72, 1-[5,6-Dimethoxyindolyl-2-carbonyl]-4-[3-(1-methylethylamino)-2-pyridinyl]piperazine], the inhibition at 100 µM in assay [1] was in the range of 43 to 66%. Besides, in assay [2], the EC50 was below 0.01 µM.
Regarding `Cc1c(C(=O)N2CCN(c3ncccc3NC(C)C)CC2)[nH]c2ccccc12` [Example 73, 1-[3-methylindolyl-2-carbonyl]-4-[3-(1-methylethylamino)-2-pyridinyl]piperazine], in assay [1], the inhibition at 100 µM was 94 to 95%. The EC50 in assay [2] is below 0.001 µM.
On to `CC(C)Nc1cc(F)ccc1N1CCN(C(=O)c2cc3ccccc3[nH]2)CC1` [Example 74, 1-[Indolyl-2-carbonyl]-4-[2-(1-methylethylamino)-4-fluorophenyl]piperazine], for which the inhibition at 100 µM in assay [1] fell in the range of 82 to 84%. In addition, the EC50 in assay [2] was 0.01 to 0.1 µM.
For the compound `CC(C)Nc1ccc(F)cc1N1CCN(C(=O)c2cc3ccccc3[nH]2)CC1` [Example 75, 1-[Indolyl-2-carbonyl]-4-[2-(1-methylethylamino)-5-fluorophenyl]piperazine], the inhibition at 100 µM in assay [1] turned out to be 77%. Further, the EC50 in assay [2] was in the range of 0.01 to 0.1 µM.
For `O=C(c1cc2ccccc2[nH]1)N1CCN(c2ncccc2N2CCCC2)CC1` [Example 76, 1-[Indolyl-2-carbonyl]-4-[3-(1-pyrrolidinyl)-2-pyridinyl]piperazine], the inhibition at 100 µM in assay [1] is 65 to 76%. Besides, in assay [2], the EC50 was in the range of 0.1 to 1 µM.
On to `CC(C)Nc1cccnc1N1CCCN(C(=O)c2cc3cc(F)ccc3[nH]2)CC1` [Example 84], for which, in assay [1], the inhibition at 100 µM stood at 97%. In addition, the EC50 in assay [2] was below 0.001 µM.
For `COc1ccc2cc(C(=O)N3CCN(c4ncccc4NC(C)C)CC3)[nH]c2c1` [Example 87, 1-[6-Methoxyindolyl-2-carbonyl]-4-[3-(1-methylethylamino)-2-pyridinyl]-piperazine], the inhibition at 100 µM in assay [1] was 96 to 98%. For the same compound, in assay [2], the EC50 was determined as 0.01 µM.
For `COc1cccc2[nH]c(C(=O)N3CCN(c4ncccc4NC(C)C)CC3)cc12` [Example 88, 1-[4-Methoxyindolyl-2-carbonyl]-4-[3-(1-methylethylamino)-2-pyridinyl]piperazine], the inhibition at 100 µM in assay [1] lay within 56 to 88%. Besides, the EC50 in assay [2] was 0.1 µM.
Consider `Cc1ccc2[nH]c(C(=O)N3CCN(c4ncccc4NC(C)C)CC3)cc2c1` [Example 89, 1-[5-Methylindolyl-2-carbonyl]-4-[3-(1-methylethylamino)-2-pyridinyl]piperazine], for which the inhibition at 100 µM in assay [1] lay in the range of 61 to 74%. Further, the EC50 in assay [2] was found to be 0.1 µM.
As to `CC(C)Nc1cccnc1N1CCN(C(=O)c2cc3cc4c(cc3[nH]2)OCO4)CC1` [Example 90, 1-[5,6-Methylenedioxyindolyl-2-carbonyl]-4-[3-(1-methylethylamino)-2-pyridinyl]piperazine], in assay [1], the inhibition at 100 µM worked out at 96%. For the same compound, the EC50 in assay [2] was below 0.001 µM.
With `COc1cc2[nH]c(C(=O)N3CCN(c4ncccc4NC(C)C)CC3)cc2cc1F` [Example 91, 1-[5-Fluoro-6-methoxyindolyl-2-carbonyl]-4-[3-(1-methylethylamino)-2-pyridinyl]piperazine], the inhibition at 100 µM in assay [1] fell in the range of 85 to 91%. Besides, in assay [2], the EC50 came out at 0.1 µM.
As for `COc1ccc2cc(C(=O)N3CCN(c4ncccc4NC(C)C)CC3)[nH]c2c1Br` [Example 92, 1-[7-Bromo-6-methoxyindolyl-2-carbonyl]-4-[3-(1-methylethyl-amino)-2-pyridinyl]piperazine], the inhibition at 100 µM in assay [1] was found to be 94%. For the same compound, the EC50 in assay [2] fell in the range of 0.1 to 1 µM.
As for `COc1cc2[nH]c(C(=O)N3CCN(c4ncccc4NC(C)C)CC3)cc2cc1Br` [Example 94, 1-[5-Bromo-6-methoxyindolyl-2-carbonyl]-4-[3-(1-methylethylamino)-2-pyridinyl]piperazine], in assay [1], the inhibition at 100 µM was determined as 85%. The EC50 in assay [2] was 0.01 to 0.1 µM.
On to `CC(C)Nc1cccnc1N1CCN(C(=O)c2cc3ccc(N(C)C)cc3[nH]2)CC1` [Example 95, 1-[6-(N,N-Dimethylamino)indolyl-2-carbonyl]-4-[3-(1-methylethylamino)-2-pyridinyl]piperazine], for which the inhibition at 100 µM in assay [1] fell in the range of 81 to 93%. Further, the EC50 in assay [2] was below 0.001 µM.
Consider `Cc1cccc2[nH]c(C(=O)N3CCN(c4ncccc4NC(C)C)CC3)cc12` [Example 97, 1-[4-Methylindolyl-2-carbonyl]-4-[3-(1-methylethylamino)-2pyridinyl]-piperazine], for which, in assay [1], the inhibition at 100 µM lay in the range of 52 to 80%. In addition, the EC50 in assay [2] is at most 0.01 µM.
As to `CCC(C)Nc1cccnc1N1CCN(C(=O)c2cc3ccccc3[nH]2)CC1` (stereo not drawn) [Example 99], the inhibition at 100 µM in assay [1] lay within 93 to 95%. For the same compound, the EC50 in assay [2] was in the range of 0.001 to 0.01 µM.
In the same order, the values of `CC(C)Nc1cccnc1N1CCN(C(=O)c2cc3cc(N)ccc3[nH]2)CC1` [Example 101, 1-[5-Aminoindolyl-2-carbonyl]-4-[3-(1-methylethylamino)-2-pyridinyl]-piperazine] are 93 to 96% and 0.01 µM.
Consider `CC(C)(C)CNc1cccnc1N1CCN(C(=O)c2cc3cc(F)ccc3[nH]2)CC1` [Example 102, 1-[5-Fluoroindolyl-2-carbonyl]-4-[3-(2',2'-dimethylpropylamino)-2-pyridinyl]piperazine], for which, in assay [1], the inhibition at 100 µM stood at 48%. For the same compound, the EC50 in assay [2] worked out at 10 µM.
In the case of `CC(C)Nc1cccnc1N1CCN(C(=O)c2cc3cc([N+](=O)[O-])ccc3[nH]2)CC1` [Example 103, 1-[5-Nitroindolyl-2-carbonyl]-4-[3-(1-methylethylamino)-2-pyridinyl]piperazine], the inhibition at 100 µM in assay [1] was determined as 72%. Besides, the EC50 in assay [2] was below 0.01 µM.
For the compound `CC(=O)Nc1ccc2[nH]c(C(=O)N3CCN(c4ncccc4NC(C)C)CC3)cc2c1` [Example 104, 1-[5-Acetamidoindolyl-2-carbonyl]-4-[3-(1-methylethylamino)-2-pyridinyl]piperazine], in assay [1], the inhibition at 100 µM fell in the range of 92 to 96%. The EC50 in assay [2] came out at 0.01 µM.

As a reminder, the inhibition is the percentage by which the read-out fell short of the control.
